Test system: glycoengineered P. pastoris (YGLY13979) strain producing a monoclonal antibody
Assay: Effect of maltitol and Mix2 supplements on fed-batch fermentation profile
Type: cell-based, Pichia pastoris
Conditions: for Cell lysis: methanol induction phase
Procedure: The osmoprotective effect of maltitol (50 g/L) in combination with a supplement comprising a mixture of nutrients (Mix2) consisting of amino acid (AA1), vitamins (Vit4), trace metal ions (TM4), and basal salts (BSM2) as described in Table 2 was also evaluated using a glycoengineered P. pastoris (YGLY13979) strain producing a monoclonal antibody was cultivated in 1 L bioreactors (Biostat Q-plus, Satorius, Germany).
A P. pastoris YGLY13979 producing a monoclonal antibody was cultivated in 1 L bioreactors (Biostat Q-plus, Satorius, Germany). For fermentation in 1 L bioreactor, a vial (1 mL) of RCB (Research Cell Bank) was inoculated into 200 mL of BSGY medium in 1 L-baffled flask. The culture incubated at 24° C., while shaking on an orbital shaker at 180 rpm for 48±4 h. The bioreactor was inoculated with a 10% volumetric ratio of seed to initial BSGY medium. Cultivation conditions were following: temperature set at 24±0.5° C., pH controlled at 6.5±0.1 with 30% ammonium hydroxide, dissolved oxygen was maintained at 20% of saturation by cascading agitation rate on the addition of pure oxygen to the fixed airflow rate of 0.7 vvm. The fermentation profile of the production strain was examined using four different cultivation conditions after batch phase.
For the control, a 50% glycerol solution containing 12.5 mL/L of PTM1 salts (6.5 g FeSO4.7H2O, 2.0 g ZnCl2, 0.6 g CuSO4.5H2O, 3.0 g MnSO4.7H2O, 0.5 g CoCl2.6H2O, 0.2 g NaMoO4.2H2O, 0.2 g biotin, 80 mg NaI, 20 mg H3BO4 per L) was fed constantly at an initial rate of 0.08 h^−1 for 8 h After depletion of the initial glycerol (4%).
For Mix2, 10 mL AA1, 4 mL Vit4, 4 mL TM4, and 4 mL BSM2 were mixed with 62.5 mL of 80% glycerol and 15.5 mL of water. The Mix2 solution was fed during the glycerol fed-batch period instead of regular glycerol solution, which was used for the control.
For Maltitol, 43.5 mL of 80% matitol solution was added into bioreactor to achieve 50 g/L concentration at the end of glycerol fed-batch phase.
For Maltitol+Mix2, two conditions of Maltitol and Mix2 were combined.
Induction was initiated after a 30 min starvation phase when methanol was fed. Methanol containing 12.5 mL/L of PTM1 salts (6.5 g FeSO4.7H2O, 2.0 g ZnCl2, 0.6 g CuSO4.5H2O, 3.0 g MnSO4.7H2O, 0.5 g CoCl2.6H2O, 0.2 g NaMoO4.2H2O, 0.2 g biotin, 80 mg NaI, 20 mg H3BO4 per L) was fed constantly starting at 1.33 g/L/h under methanol limited condition. Agitation speed was changed from cascade mode with agitation speed and pure oxygen.

Q: With `OC[C@@H](O)[C@@H](O[C@H]1O[C@H](CO)[C@@H](O)[C@H](O)[C@H]1O)[C@H](O)[C@@H](O)CO` [Maltitol, 4-O-α-glucopyranosyl-D-sorbitol] as the molecule, how does the “Increase of maximum titer of anti-Her2 monoclonal antibody over control culture” value (5% maltitol, 600 mOsm/kg in induction phase) read?
A: 120%

Q: What about the Cell lysis (vs BSGY control) of the same molecule?
A: reduced the cell lysis significantly

Q: And the Cell lysis (vs BSGY control, listed as maltitol)?
A: significantly reduced

Q: What about the “Effective range of concentration in BSGY medium” value (to increase and maintain osmolality during induction phase) of the same molecule?
A: higher than 25 g/L

Q: What about the Cell yield (vs BSGY control) of the same molecule?
A: slight reduction of cell yield

Source: patent US20150299648A1, “IMPROVED CULTIVATION MEDIA AND PROCESS FOR IMPROVED PROTEIN PRODUCTION BY PICHIA STRAINS” (priority 2012, published 2015)
